Source: patent publication US7037644B1, “Means and methods for monitoring non-nucleoside reverse transcriptase inhibitor antiretroviral therapy and guiding therapeutic decisions in the treatment of HIV/AIDS” (ViroLogic, Inc., priority 1998, dated 2006)

Assays:
[1] = system: RTV with L100I mutation alone; experiment: Phenotypic susceptibility assay (site directed mutant RTV); format: cell-based, HIV-1
Text: The resistance test vectors containing a functional luciferase gene cassette were constructed and host cells were transfected with the resistance test vector DNA. The resistant test vectors contained patient-derived reverse transcriptase and protease sequences that were either susceptible or resistant to the antiretroviral agents, such as nucleoside reverse transcriptase inhibitors, non-nucleoside reverse transcriptase inhibitors and protease inhibitors. The resistance test vector viral particles produced by transfecting the resistance test vector DNA into host cells, either in the presence or absence of protease inhibitors, were used to infect target host cells grown either in the absence of NRTI or NNRTI or in the presence of increasing concentrations of the drug. The amount of luciferase activity produced in infected target host cells in the presence of drug was compared to the amount of luciferase produced in infected target host cells in the absence of drug. Drug resistance was measured as the amount of drug required to inhibit by 50% the luciferase activity detected in the absence of drug (inhibitory concentration 50%, IC50). The IC50 values were determined by plotting percent drug inhibition vs. log10 drug concentration.
Host cells were seeded in 10-cm-diameter dishes and were transfected several days after plating with resistance test vector plasmid DNA and the envelope expression vector. Transfections were performed using a calcium-phosphate precipitation procedure. The cell culture media containing the DNA precipitate was replaced with fresh medium, from one to 24 hours, after transfection. Cell culture media containing resistance test vector viral particles was harvested one to four days after transfection and was passed through a […] filter before being stored at […]. HIV capsid protein (p24) levels in the harvested cell culture media were determined by an EIA method as described by the manufacturer (SIAC; Frederick, Md.). Before infection, target cells (293 and 293/T) were plated in cell culture media. Control infections were performed using cell culture media from mock transfections (no DNA) or transfections containing the resistance test vector plasmid DNA without the envelope expression plasmid. One to three or more days after infection the media was removed and cell lysis buffer (Promega) was added to each well. Cell lysates were assayed for luciferase activity (FIG. 3). The inhibitory effect of the drug was determined using the following equation: % luciferase inhibition=1−(RLUluc [drug]÷RLUluc)×100 where RLUluc [drug] is the relative light unit of luciferase activity in infected cells in the presence of drug and RLUluc is the Relative Light Unit of luciferase activity in infected cells in the absence of drug. IC50 values were obtained from the sigmoidal curves that were generated from the data by plotting the percent inhibition of luciferase activity vs. the log10 drug concentration. The drug inhibition curves are shown in (FIG. 3).
The mutations Y188L, L100I and K103N were introduced alone and in combinationn into resistance test vectors using the mega-primer method for site-directed mutagenesis (Sakar and Sommar, Ibid.).

[2] = molecular target: RT with P236L substitution (Human immunodeficiency virus type 1 group M subtype B, UniProt P04585, P823L); details: P236L substitution sensitizes RT; cited from earlier work
Y188H-RTV = experiment: Phenotypic susceptibility assay (site directed mutant RTV); format: cell-based, HIV-1; details: Y188H alone
Protocol: The resistance test vectors containing a functional luciferase gene cassette were constructed and host cells were transfected with the resistance test vector DNA. The resistant test vectors contained patient-derived reverse transcriptase and protease sequences that were either susceptible or resistant to the antiretroviral agents, such as nucleoside reverse transcriptase inhibitors, non-nucleoside reverse transcriptase inhibitors and protease inhibitors. […] The IC50 values were determined by plotting percent drug inhibition vs. log10 drug concentration.
Host cells were seeded in 10-cm-diameter dishes and were transfected several days after plating with resistance test vector plasmid DNA and the envelope expression vector. […] HIV capsid protein (p24) levels in the harvested cell culture media were determined by an EIA method as described by the manufacturer (SIAC; Frederick, Md.). […] The inhibitory effect of the drug was determined using the following equation: % luciferase inhibition=1−(RLUluc [drug]÷RLUluc)×100 where RLUluc [drug] is the relative light unit of luciferase activity in infected cells in the presence of drug and RLUluc is the Relative Light Unit of luciferase activity in infected cells in the absence of drug. […]

In the case of `Cc1ccnc2c1NC(=O)c1cccnc1N2C1CC1` [nevirapine], the “loss of susceptibility (fold, IC50) vs wild type control RTV” value [1] is given as 3 fold, the “reduction of IC50” value [2] is given as 7- to 10 fold and the “loss of susceptibility (fold, IC50) vs wild type control RTV” value (Y188H-RTV) is given as 3.5 fold.
